{
  "source": "ChEMBL document CHEMBL3045264",
  "about": "“Synthesis and antimicrobial activity of 5-((3-aryl-1-phenyl-1H-pyrazol-4-yl)methylene)thiazolidine-2,4-diones” (2012)",
  "key": {"Aspergillus niger": {"test_system": "Aspergillus niger", "assay": "Growth inhibition of Aspergillus niger at 4 mg/ml after 7 days by poisoned food technique", "format": "functional", "conditions": "168 h, read-out: GI"}, "Pseudomonas aeruginosa [1]": {"test_system": "Pseudomonas aeruginosa", "conditions": "MTCC 741, 4 mg/ml", "description": "(§1) Antibacterial activity against Pseudomonas aeruginosa MTCC 741 at 4 mg/ml after 24 hr by agar well diffusion method"}, "Escherichia coli": {"test_system": "Escherichia coli", "assay": "Antibacterial activity against Escherichia coli MTCC 1652 at 4 mg/ml after 24 hr by agar well diffusion method", "format": "functional, organism-based"}, "Aspergillus flavus": {"test_system": "Aspergillus flavus", "assay": "Growth inhibition of Aspergillus flavus at 4 mg/ml after 7 days by poisoned food technique", "format": "functional", "conditions": "168 h, read-out: GI"}, "Staphylococcus aureus [2]": {"test_system": "Staphylococcus aureus", "assay": "Antibacterial activity against Staphylococcus aureus MTCC 96 at 4 mg/ml after 24 hr by agar well diffusion method", "format": "functional", "conditions": "MTCC 96, 24 h, read-out: DIZ"}, "Bacillus subtilis [3]": {"test_system": "Bacillus subtilis", "assay": "Antibacterial activity against Bacillus subtilis MTCC 121 at 4 mg/ml after 24 hr by agar well diffusion method", "format": "functional", "conditions": "MTCC 121, 24 h, read-out: DIZ"}, "Bacillus subtilis [4]": {"test_system": "Bacillus subtilis", "assay": "Antibacterial activity against Bacillus subtilis MTCC 121 after 24 hr by macro dilution tube method", "format": "functional", "conditions": "MTCC 121, 24 h"}, "Staphylococcus aureus [5]": {"test_system": "Staphylococcus aureus", "assay": "Antibacterial activity against Staphylococcus aureus MTCC 96 after 24 hr by macro dilution tube method", "format": "functional", "conditions": "MTCC 96, 24 h"}, "Pseudomonas aeruginosa [6]": {"test_system": "Pseudomonas aeruginosa", "assay": "microbe, parasite or virus in culture", "conditions": "MTCC 741, 24 h, read-out: DIZ", "description": "as §1"}},
  "note": "Calls of active or inactive are those of the source. No cut-off for these calls is given here.",
  "data": [
    {"smiles": "O=C1NC(=O)/C(=C/c2cn(-c3ccccc3)nc2-c2ccc([N+](=O)[O-])cc2)S1", "values": [
      {"measurement": "inhibition of growth at 4000 µg/mL", "setting": "Aspergillus niger", "value": 61.1, "unit": "%"},
      {"measurement": "DIZ", "setting": "Pseudomonas aeruginosa [1]", "value": "inactive"},
      {"measurement": "diameter of the inhibition zone (DIZ)", "setting": "Escherichia coli", "value": "inactive"},
      {"measurement": "inhibition of growth at 4000 µg/mL", "setting": "Aspergillus flavus", "value": 63.3, "unit": "%"},
      {"measurement": "zone of inhibition at 4000 µg/mL", "setting": "Staphylococcus aureus [2]", "value": 23.6, "unit": "mm"},
      {"measurement": "zone of inhibition at 4000 µg/mL", "setting": "Bacillus subtilis [3]", "value": 21.3, "unit": "mm"},
      {"measurement": "MIC", "setting": "Bacillus subtilis [4]", "value": 32, "unit": "µg/mL"},
      {"measurement": "MIC", "setting": "Staphylococcus aureus [5]", "value": 16, "unit": "µg/mL"}
    ]},
    {"smiles": "Cc1ccc(-c2nn(-c3ccccc3)cc2/C=C2\\SC(=O)NC2=O)cc1", "values": [
      {"measurement": "inhibition of growth at 4000 µg/mL", "setting": "Aspergillus niger", "value": 68.8, "unit": "%"},
      {"measurement": "DIZ", "setting": "Pseudomonas aeruginosa [1]", "value": "inactive"},
      {"measurement": "diameter of the inhibition zone (DIZ)", "setting": "Escherichia coli", "value": "inactive"},
      {"measurement": "inhibition of growth at 4000 µg/mL", "setting": "Aspergillus flavus", "value": 65.5, "unit": "%"},
      {"measurement": "zone of inhibition at 4000 µg/mL", "setting": "Staphylococcus aureus [2]", "value": 16.3, "unit": "mm"},
      {"measurement": "zone of inhibition at 4000 µg/mL", "setting": "Bacillus subtilis [3]", "value": 15.6, "unit": "mm"},
      {"measurement": "MIC", "setting": "Bacillus subtilis [4]", "value": 128, "unit": "µg/mL"},
      {"measurement": "MIC", "setting": "Staphylococcus aureus [5]", "value": 128, "unit": "µg/mL"}
    ]},
    {"smiles": "O=C1NC(=O)/C(=C/c2cn(-c3ccccc3)nc2-c2ccccc2)S1", "values": [
      {"measurement": "inhibition of growth at 4000 µg/mL", "setting": "Aspergillus niger", "value": 62.5, "unit": "%"},
      {"measurement": "DIZ", "setting": "Pseudomonas aeruginosa [1]", "value": "inactive"},
      {"measurement": "diameter of the inhibition zone (DIZ)", "setting": "Escherichia coli", "value": "inactive"},
      {"measurement": "inhibition of growth at 4000 µg/mL", "setting": "Aspergillus flavus", "value": 60, "unit": "%"},
      {"measurement": "zone of inhibition at 4000 µg/mL", "setting": "Staphylococcus aureus [2]", "value": 20.3, "unit": "mm"},
      {"measurement": "zone of inhibition at 4000 µg/mL", "setting": "Bacillus subtilis [3]", "value": 16, "unit": "mm"},
      {"measurement": "MIC", "setting": "Bacillus subtilis [4]", "value": 128, "unit": "µg/mL"},
      {"measurement": "MIC", "setting": "Staphylococcus aureus [5]", "value": 32, "unit": "µg/mL"}
    ]},
    {"smiles": "O=C1NC(=O)/C(=C/c2cn(-c3ccccc3)nc2-c2ccc(Cl)cc2)S1", "values": [
      {"measurement": "inhibition of growth at 4000 µg/mL", "setting": "Aspergillus niger", "value": 65.5, "unit": "%"},
      {"measurement": "DIZ", "setting": "Pseudomonas aeruginosa [1]", "value": "inactive"},
      {"measurement": "diameter of the inhibition zone (DIZ)", "setting": "Escherichia coli", "value": "inactive"},
      {"measurement": "inhibition of growth at 4000 µg/mL", "setting": "Aspergillus flavus", "value": 60, "unit": "%"},
      {"measurement": "zone of inhibition at 4000 µg/mL", "setting": "Staphylococcus aureus [2]", "value": 14.3, "unit": "mm"},
      {"measurement": "zone of inhibition at 4000 µg/mL", "setting": "Bacillus subtilis [3]", "value": 15, "unit": "mm"},
      {"measurement": "MIC", "setting": "Bacillus subtilis [4]", "value": 128, "unit": "µg/mL"},
      {"measurement": "MIC", "setting": "Staphylococcus aureus [5]", "value": 128, "unit": "µg/mL"}
    ]},
    {"smiles": "O=C1NC(=O)/C(=C/c2cn(-c3ccccc3)nc2-c2ccc(Br)cc2)S1", "values": [
      {"measurement": "inhibition of growth at 4000 µg/mL", "setting": "Aspergillus niger", "value": 61.1, "unit": "%"},
      {"measurement": "DIZ", "setting": "Pseudomonas aeruginosa [1]", "value": "inactive"},
      {"measurement": "diameter of the inhibition zone (DIZ)", "setting": "Escherichia coli", "value": "inactive"},
      {"measurement": "inhibition of growth at 4000 µg/mL", "setting": "Aspergillus flavus", "value": 62.5, "unit": "%"},
      {"measurement": "zone of inhibition at 4000 µg/mL", "setting": "Staphylococcus aureus [2]", "value": 18.6, "unit": "mm"},
      {"measurement": "zone of inhibition at 4000 µg/mL", "setting": "Bacillus subtilis [3]", "value": 21.6, "unit": "mm"},
      {"measurement": "MIC", "setting": "Bacillus subtilis [4]", "value": 32, "unit": "µg/mL"},
      {"measurement": "MIC", "setting": "Staphylococcus aureus [5]", "value": 64, "unit": "µg/mL"}
    ]},
    {"smiles": "O=C1NC(=O)/C(=C/c2cn(-c3ccccc3)nc2-c2ccc(F)cc2)S1", "values": [
      {"measurement": "inhibition of growth at 4000 µg/mL", "setting": "Aspergillus niger", "value": 82.5, "unit": "%"},
      {"measurement": "DIZ", "setting": "Pseudomonas aeruginosa [1]", "value": "inactive"},
      {"measurement": "diameter of the inhibition zone (DIZ)", "setting": "Escherichia coli", "value": "inactive"},
      {"measurement": "inhibition of growth at 4000 µg/mL", "setting": "Aspergillus flavus", "value": 78.8, "unit": "%"},
      {"measurement": "zone of inhibition at 4000 µg/mL", "setting": "Staphylococcus aureus [2]", "value": 20.6, "unit": "mm"},
      {"measurement": "zone of inhibition at 4000 µg/mL", "setting": "Bacillus subtilis [3]", "value": 21.6, "unit": "mm"},
      {"measurement": "MIC", "setting": "Bacillus subtilis [4]", "value": 32, "unit": "µg/mL"},
      {"measurement": "MIC", "setting": "Staphylococcus aureus [5]", "value": 32, "unit": "µg/mL"}
    ]},
    {"smiles": "O=C(O)c1cn(C2CC2)c2cc(N3CCNCC3)c(F)cc2c1=O", "note": "[CIPROFLOXACIN]", "values": [
      {"measurement": "zone of inhibition at 4000 µg/mL", "setting": "Pseudomonas aeruginosa [6]", "value": 22, "unit": "mm"},
      {"measurement": "zone of inhibition at 4000 µg/mL", "setting": "Staphylococcus aureus [2]", "value": 26, "unit": "mm"},
      {"measurement": "zone of inhibition at 4000 µg/mL", "setting": "Bacillus subtilis [3]", "value": 24, "unit": "mm"},
      {"measurement": "MIC", "setting": "Bacillus subtilis [4]", "value": 5, "unit": "µg/mL"},
      {"measurement": "MIC", "setting": "Staphylococcus aureus [5]", "value": 5, "unit": "µg/mL"}
    ]},
    {"smiles": "COc1ccc(-c2nn(-c3ccccc3)cc2/C=C2\\SC(=O)NC2=O)cc1", "values": [
      {"measurement": "inhibition of growth at 4000 µg/mL", "setting": "Aspergillus niger", "value": 60, "unit": "%"},
      {"measurement": "DIZ", "setting": "Pseudomonas aeruginosa [1]", "value": "inactive"},
      {"measurement": "diameter of the inhibition zone (DIZ)", "setting": "Escherichia coli", "value": "inactive"},
      {"measurement": "inhibition of growth at 4000 µg/mL", "setting": "Aspergillus flavus", "value": 57.7, "unit": "%"},
      {"measurement": "zone of inhibition at 4000 µg/mL", "setting": "Staphylococcus aureus [2]", "value": 13.6, "unit": "mm"},
      {"measurement": "zone of inhibition at 4000 µg/mL", "setting": "Bacillus subtilis [3]", "value": 14.3, "unit": "mm"},
      {"measurement": "MIC", "setting": "Bacillus subtilis [4]", "value": 128, "unit": "µg/mL"},
      {"measurement": "MIC", "setting": "Staphylococcus aureus [5]", "value": 128, "unit": "µg/mL"}
    ]},
    {"smiles": "OC(Cn1cncn1)(Cn1cncn1)c1ccc(F)cc1F", "note": "[FLUCONAZOLE]", "values": [
      {"measurement": "inhibition of growth at 4000 µg/mL", "setting": "Aspergillus niger", "value": 81.1, "unit": "%"},
      {"measurement": "inhibition of growth at 4000 µg/mL", "setting": "Aspergillus flavus", "value": 77.7, "unit": "%"}
    ]},
    {"smiles": "O=C1NC(=O)/C(=C/c2cn(-c3ccccc3)nc2-c2ccc(O)cc2)S1", "values": [
      {"measurement": "inhibition of growth at 4000 µg/mL", "setting": "Aspergillus niger", "value": 55.5, "unit": "%"},
      {"measurement": "DIZ", "setting": "Pseudomonas aeruginosa [1]", "value": "inactive"},
      {"measurement": "diameter of the inhibition zone (DIZ)", "setting": "Escherichia coli", "value": "inactive"},
      {"measurement": "inhibition of growth at 4000 µg/mL", "setting": "Aspergillus flavus", "value": 54.4, "unit": "%"},
      {"measurement": "zone of inhibition at 4000 µg/mL", "setting": "Staphylococcus aureus [2]", "value": 15, "unit": "mm"},
      {"measurement": "zone of inhibition at 4000 µg/mL", "setting": "Bacillus subtilis [3]", "value": 14.6, "unit": "mm"},
      {"measurement": "MIC", "setting": "Bacillus subtilis [4]", "value": 128, "unit": "µg/mL"},
      {"measurement": "MIC", "setting": "Staphylococcus aureus [5]", "value": 128, "unit": "µg/mL"}
    ]}
  ]
}
